These results are taken from publication PMC9249674, “A small-molecule Skp1 inhibitor elicits cell death by p53-dependent mechanism” (iScience, 2022).

Read-outs that look alike come from different tables or passages of the source.

One assay deals with T1, Skp1^WT (Homo sapiens, UniProt P63208).
T1 construct: recombinantly purify intact (Skp1^WT) and truncate (ΔSkp1^1−140; lacking H8-helix) forms of Skp1; His6; made in house; host or cells: Escherichia coli BL21 (DE3)
Nature of the assay: Thermal shift assay (TSA). The class given is binding. The conditions noted are these: protein 8 μM. The source says: (§1) TSA, also known as differential scanning fluorimetry (DSF), is used to identify the contribution of a ligand binding to an unfolding protein as a function of temperature. The detection involves increase in fluorescence of a fluorophore SYPRO Orange (Invitrogen) upon binding to the hydrophobic regions of the gradually unfolded protein. A ligand stabilizing a protein may increase the melting temperature (Tm). To detect the binding of Z0933M with Skp1, a gradient TSA was used, in which, protein samples were mixed with appropriate concentrations of ligand over the range of several folds. The protein (Skp1^WT or ΔSkp1^1−140) was kept constant at 8 μM, and the compound concentration was varied from 50 μM to 600 μM. For comparison with 6-OAP, a single concentration of 400 μM was tested with both Skp1^WT and ΔSkp1^1−140. All reactions were set up in final volume of 10 μL in 96-well plate with 1x SYPRO Orange (Invitrogen) and incubated with compounds on ice for 30 min. According to the experimental protocol, samples were heated at 0.5°C per minute, ranging from 30 to 90°C, and the fluorescence intensity was measured at the interval of 0.5°C. Appropriate buffer blank and protein-only controls were kept, and the shift in Tm was measured as ΔTm = Tm (ligand-protein) ‒ (protein-only). The resultant ΔTm values were plotted by using GraphPad Prism® v6.0 (San Diego, CA) and ORIGIN Lab softwares.

The target of a further assay is T2, ΔSkp1^1−140 (Homo sapiens, UniProt P63208).
T2 construct: pETDuet-Skp1(1-140); His6; made in house; host or cells: Escherichia coli BL21 (DE3)
Nature of the assay: Thermal shift assay (TSA). The class given is binding. The conditions noted are these: protein 8 μM.
Text: as §1

Assay [1] deals with A549 cells. Nature of the assay: Cell viability assay (Cell-Titer GLO). The class given is cell-based, human. The conditions noted are these: for EC50: Homo sapiens. How it is done: The media was according to culture conditions of each individual cell line (mentioned above). After 12 hrs, compounds were added in a total volume of 5 μL of media (two-fold diluted) to each well with final concentrations from 5 nM to 30 μM. The measurements were conducted 48 hrs after seeding of the cells. Then, 25 μL of Cell-Titer GLO reagent (Promega) was added, and luminescence was measured on an EnSpire multimode plate reader (PerkinElmer), according to the manufacturer’s instructions. The estimated in vitro half-maximal inhibitory concentration (EC50) values were calculated using GraphPad Prism® v6.0 (San Diego, CA) software. The cell viability for A549 cells was also performed for 72- and 96-hrs by using the same experimental conditions as described above.

The subject of a further assay is mycobacterial. Nature of the assay: Anti-mycobacterial evaluation. It is filed as cell-based.
In assay [2] the target is T3, Skp1 interaction with Skp2 (Homo sapiens, UniProt P63208).
T3 construct: host or cells: HEK293
Nature of the assay: Cell-based FRET assay in HEK293 cells. Particulars: 4 hrs, increasing concentrations.

Assay [3] deals with A549 cells. Nature of the assay: Flow cytometric analysis of cell cycle. The conditions noted are these: 0.5 μM, asynchronized and synchronized A549 cells. The class given is cell-based, human. As to the method:
Both asynchronous and synchronous cells were analyzed by flow cytometry with DNA staining to determine the total amount of DNA. For asynchronous analysis, A549 cells were seeded into six-well plates at a density of 6 × 10^5 cells/well. After 14 to 16 hrs of seeding, the cells were treated with indicated concentrations of Z0933M for 24 hrs. Then, the cells were harvested, washed twice with cold PBS, and fixed in cold 70% ethanol on ice (around 4°C) for 4 hrs. Next, the cells were washed twice with cold PBS, resuspended with cold PBS containing […] RnaseA (Sigma), and incubated for 30 min at 37°C. Then, PBS containing […] propidium iodide (PI) (Sigma) was directly added, the cells were mixed gently, and incubated for 5–10 min at room temperature in the dark. Finally, the cell-cycle phase distribution was analyzed in three different experiments using flow cytometry (BD Biosciences, San Diego, CA, USA). At least 10,000 events/sample were acquired. Assays were conducted three times independently. The data was analyzed by FlowJo V10 software. For synchronous cell cycle analysis, cells were synchronized to G1/S boundary by a double-thymidine blockade ([Liu et al., 2015]), and then exposed to Z0933M for time-dependent or dose-dependent analysis. […] Cell cycle distribution was analyzed by flow cytometry (BD Biosciences, San Diego, CA, USA) and FlowJo V10 software.
(In general: In flow cytometry, cells or beads pass a laser one at a time.)

The subject of a further assay is H358 (p53 null) cells. Nature of the assay: Flow cytometric analysis of apoptosis (annexin V/PI). It is filed as cell-based. The conditions noted are these: 10 μM dose.

T1 sequence (P63208 whole entry, the tested form may be a part): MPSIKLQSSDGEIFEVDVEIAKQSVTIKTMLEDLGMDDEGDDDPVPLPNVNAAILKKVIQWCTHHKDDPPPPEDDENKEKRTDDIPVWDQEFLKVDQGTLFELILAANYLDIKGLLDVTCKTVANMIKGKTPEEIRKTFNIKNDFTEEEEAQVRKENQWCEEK
T2 sequence (P63208 1-140, stated change not applied): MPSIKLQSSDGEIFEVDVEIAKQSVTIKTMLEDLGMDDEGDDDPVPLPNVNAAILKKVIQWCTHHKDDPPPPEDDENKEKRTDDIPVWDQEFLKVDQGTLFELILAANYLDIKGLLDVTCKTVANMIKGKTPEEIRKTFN
T3 sequence (P63208 whole entry): as the sequence (P63208 whole entry, the tested form may be a part) above

With `Nc1ccc(-c2nc3ccccc3c3[nH]c4ccccc4c23)cc1` [Z0933M], the ΔTm at 50 µM came to 0.3 °C at Skp1^WT (50 μM compound) and 0.9 °C at ΔSkp1^1−140 (50 μM compound). Also, the thermal shift (ΔTm) at 100 µM at Skp1^WT (100 μM compound) and at ΔSkp1^1−140 (100 μM compound) was 0.6 °C in each case. Moreover, the ΔTm at 200 µM on Skp1^WT (200 μM compound) came to 2.4 °C; on ΔSkp1^1−140 (200 μM compound) it was 2.1 °C. Moreover, the ΔTm at 400 µM worked out at 7.8 °C on Skp1^WT (400 μM compound) and 10.8 °C on ΔSkp1^1−140 (400 μM compound). Besides, the ΔTm at 600 µM at Skp1^WT (600 μM compound) was determined as 10.5 °C; at ΔSkp1^1−140 (600 μM compound), 11.1 °C. In addition, in the assay with A549 cells [1] (A549 cells, 48 h, ratio of EC50 values), the “anti-proliferative potency relative to 6-OAP” value is “approximately 24 times”. The EC50 came to 580 ± 70 nM in the assay with A549 cells [1] (A549, Lung cancer, 48 h, read-out: Anti-proliferative EC50); 99 ± 1 nM with A549 cells [1] (A549 cells, 72 hrs, read-out: EC50); 66 ± 18 nM in the assay on A549 cells [1] (A549 cells, 96 hrs, read-out: EC50). The same compound displayed an MIC against mycobacterial of more than 30 µM. The “inhibition of Skp1-Skp2 interaction (FRET ratio)” value in assay [2] is recorded as “significant inhibition”. Further, in the assay on A549 cells [3], the cell cycle effect result is reported as “complete G2/M arrest”. In addition, in the assay on H358 (p53 null) cells, the induction of apoptosis entry is on record as “could not induce apoptosis”.

What is called ΔTm is the change in melting temperature against a reference sample. Usually EC50 stands for the concentration at which the effect is half-maximal. As usually defined, the MIC is the lowest concentration found to suppress growth. Lower therefore signals a more susceptible organism.
